Laboratory results: patent US10253018B2, “Apoptosis signal-regulating kinase 1 inhibitors and methods of use thereof” (ENANTA PHARMACEUTICALS, INC., priority 2017, dated 2019)

Target: ASK1 (Homo sapiens (Human), UniProt Q99683)
Test: HTRF KinEASE Assay (TR-FRET), inhibition of ASK1
Assay type: biochemical
Conditions: 5 nM ASK1 kinase, 1 uM STK3 peptide substrate, 100 uM ATP, 3 hours
Description: Assays HTRF® KinEASE™ Assay ASK1 was purchased from Thermofisher (Catalogue # PV4011), ATP was purchased from Sigma (Catalogue # A7699), HTRF® KinEASE™ Assay System was obtained from Cisbio (Bedford, Mass.). ½ Area plate was purchased from Perkin Elmer (Catalogue # #6005560). HTRF® KinEASE™-STK is a generic method for measuring serine/threonine kinase activities using a time-resolved fluorescence resonance energy transfer (TR-FRET) immunoassay. […] The STK3-antibody labeled with Eu^3+-Cryptate and 125 nM streptavidin-XL665 are mixed in a single addition with stop reagents provided by the Cisbio kit used to stop the kinase reaction. Fluorescence is detected using an Envision Multilabeled 2014 reader from PerkinElmer. The Fluorescence is measured at 615 nm (Cryptate) and 665 nm (XL665) and a ratio of 665 nm/615 nm is calculated for each well. The resulting TR-FRET is proportional to the phosphorylation level. Staurosporine was used as the positive control. IC50 was determined by XLfit 5.3.

Sequence of ASK1 (Q99683 whole entry): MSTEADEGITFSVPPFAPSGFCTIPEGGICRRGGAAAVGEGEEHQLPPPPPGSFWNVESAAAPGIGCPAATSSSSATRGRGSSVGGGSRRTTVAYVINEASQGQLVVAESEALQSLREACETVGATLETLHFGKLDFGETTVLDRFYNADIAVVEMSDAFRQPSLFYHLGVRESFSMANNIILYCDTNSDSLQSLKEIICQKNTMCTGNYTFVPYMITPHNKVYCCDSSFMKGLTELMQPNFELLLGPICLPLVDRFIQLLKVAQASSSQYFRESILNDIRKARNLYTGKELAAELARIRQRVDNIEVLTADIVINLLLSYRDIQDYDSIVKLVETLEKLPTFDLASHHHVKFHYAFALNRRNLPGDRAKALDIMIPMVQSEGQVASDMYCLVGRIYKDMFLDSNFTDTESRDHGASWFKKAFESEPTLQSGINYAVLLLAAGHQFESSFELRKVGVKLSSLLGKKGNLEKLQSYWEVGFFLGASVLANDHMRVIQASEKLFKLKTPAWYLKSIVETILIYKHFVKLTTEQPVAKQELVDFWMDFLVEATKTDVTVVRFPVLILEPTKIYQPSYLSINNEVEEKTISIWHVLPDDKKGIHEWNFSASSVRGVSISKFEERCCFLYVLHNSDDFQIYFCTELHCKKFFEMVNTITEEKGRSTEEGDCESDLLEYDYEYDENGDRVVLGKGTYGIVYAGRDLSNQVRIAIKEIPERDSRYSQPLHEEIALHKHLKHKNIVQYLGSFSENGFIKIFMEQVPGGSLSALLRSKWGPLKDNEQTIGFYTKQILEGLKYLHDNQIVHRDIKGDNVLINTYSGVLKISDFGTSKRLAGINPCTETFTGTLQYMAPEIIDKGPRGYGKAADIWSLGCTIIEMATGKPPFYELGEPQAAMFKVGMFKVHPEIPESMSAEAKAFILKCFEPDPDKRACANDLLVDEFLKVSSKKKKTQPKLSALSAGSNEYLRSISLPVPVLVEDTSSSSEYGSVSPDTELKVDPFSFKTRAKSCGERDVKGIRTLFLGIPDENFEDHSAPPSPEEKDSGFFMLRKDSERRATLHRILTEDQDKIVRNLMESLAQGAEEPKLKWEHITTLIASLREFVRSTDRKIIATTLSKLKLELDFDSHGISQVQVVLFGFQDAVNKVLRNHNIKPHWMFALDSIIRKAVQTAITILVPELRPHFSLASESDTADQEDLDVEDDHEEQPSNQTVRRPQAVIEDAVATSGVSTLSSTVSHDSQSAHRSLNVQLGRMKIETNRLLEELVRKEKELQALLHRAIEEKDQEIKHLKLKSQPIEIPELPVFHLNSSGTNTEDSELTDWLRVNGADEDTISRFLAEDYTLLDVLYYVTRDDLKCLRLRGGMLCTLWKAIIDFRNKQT

IC50 [nM]	SMILES
100 to 1000	CC(C)n1cnnc1-c1cccc(NC(=O)c2ccc3nccnc3c2)n1 [Example 1]
100 to 1000	COc1nc2ccc(C(=O)Nc3cccc(-c4nncn4C(C)C)n3)cc2nc1N1CCOCC1 [Example 2]
10 to 100	COc1nc2cc(F)c(C(=O)Nc3cccc(-c4nncn4C(C)C)n3)cc2nc1N1CCCCC1 [Example 3]
10 to 100	CC(C)Nc1nc2cc(C(=O)Nc3cccc(-c4nncn4C(C)C)n3)ccc2nc1OC(C)C [Example 4]
100 to 1000	COc1nc2ccc(C(=O)Nc3cccc(-c4nncn4C(C)C)n3)cc2nc1N1CCCCC1 [Example 5]
> 1000	CC(C)Oc1nc2ccc(C(=O)Nc3cccc(-c4nncn4C(C)C)n3)cc2nc1N1CCCCC1 [Example 6]
100 to 1000	CC(C)Oc1nc2ccc(C(=O)Nc3cccc(-c4nncn4C(C)C)n3)cc2nc1N1CCOCC1 [Example 7]
100 to 1000	COc1nc2ccc(C(=O)Nc3cccc(-c4nncn4C(C)C)n3)cc2nc1NC(C)C [Example 8]
> 1000	CC(C)Oc1nc2cc(F)c(C(=O)Nc3cccc(-c4nnnn4C(C)C)n3)cc2nc1N(C)C(C)C [Example 9]
> 1000	CC(C)Oc1nc2cc(F)c(C(=O)Nc3cccc(-c4nnnn4C(C)C)n3)cc2nc1OC(C)C [Example 10]
100 to 1000	CC(C)Oc1nc2cc(F)c(C(=O)Nc3cccc(-c4nncn4C(C)C)n3)cc2nc1OC(C)C [Example 11]
> 1000	CC(C)CN(C)c1nc2cc(C(=O)Nc3cccc(-c4nnnn4C(C)C)n3)c(F)cc2nc1OC(C)C [Example 12]
100 to 1000	CC(C)CN(C)c1nc2cc(C(=O)Nc3cccc(-c4nncn4C(C)C)n3)c(F)cc2nc1OC(C)C [Example 13]
> 1000	CC(C)Nc1nc2cc(C(=O)Nc3cccc(-c4nnnn4C(C)C)n3)c(F)cc2nc1OC(C)C [Example 14]
10 to 100	CC(C)Nc1nc2cc(C(=O)Nc3cccc(-c4nncn4C(C)C)n3)c(F)cc2nc1OC(C)C [Example 15]
100 to 1000	COc1nc2cc(F)c(C(=O)Nc3cccc(-c4nnnn4C(C)C)n3)cc2nc1N1CCCCC1 [Example 16]
> 1000	CC(C)Nc1nc2cc(C(=O)Nc3cccc(-c4nnnn4[C@@H](C)CO)n3)c(F)cc2nc1OC(C)C [Example 17]
1 to 10	CC(C)n1cnnc1-c1cccc(NC(=O)c2cc3ccccc3cn2)n1 [Example 18]
1 to 10	CC(C)n1cnnc1-c1cccc(NC(=O)c2cc3cc(Br)ccc3cn2)n1 [Example 19, 6-bromo-N-(6-(4-isopropyl-4H-1,2,4-triazol-3-yl)pyridin-2-yl)isoquinoline-3-carboxamide]
> 1000	CC(C)n1nnnc1-c1cccc(NC(=O)c2cc3cc(Br)ccc3cn2)n1 [Example 20]

IC50 [nM]	SMILES
1 to 10	CC(C)n1cnnc1-c1cccc(NC(=O)c2cc3cc(N4CCCCC4)ccc3cn2)n1 [Example 21]
1 to 10	CC(C)n1cnnc1-c1cccc(NC(=O)c2cc3cc(-n4cnc(C5CC5)c4)ccc3cn2)n1 [Example 22]
10 to 100	CCn1nccc1-c1ccc2cnc(C(=O)Nc3cccc(-c4nncn4C(C)C)n3)cc2c1 [Example 23]
100 to 1000	CC(C)n1cnnc1-c1cccc(NC(=O)c2ccc3ccc(N4CCOCC4)nc3c2)n1 [Example 24]
> 1000	CC(C)n1cnnc1-c1cccc(NC(=O)c2ccc3ccc(N(C)C)nc3c2)n1 [Example 25]
10 to 100	CC(C)n1cnnc1-c1cccc(NC(=O)c2ccc3ccc(N4CCCCC4)nc3c2)n1 [Example 26]
> 1000	CC(C)n1cnnc1-c1cccc(NC(=O)c2ccc3ccc(N4CCN(C(C)(C)C)CC4)nc3c2)n1 [Example 27]
> 1000	CC(C)n1cnnc1-c1cccc(NC(=O)c2ccc3ccc(NC4CCCCC4)nc3c2)n1 [Example 28]
> 1000	CC(C)n1cnnc1-c1cccc(NC(=O)c2ccc3ccc(N4CC5(COC5)C4)nc3c2)n1 [Example 29]
100 to 1000	CC(C)n1cnnc1-c1cccc(NC(=O)c2ccc3ccc(N4CC5CCC(C4)O5)nc3c2)n1 [Example 30]
> 1000	CCN(Cc1ccccc1)c1ccc2ccc(C(=O)Nc3cccc(-c4nncn4C(C)C)n3)cc2n1 [Example 31]
10 to 100	COCCNc1ccc2ccc(C(=O)Nc3cccc(-c4nncn4C(C)C)n3)cc2n1 [Example 33]
100 to 1000	CC(C)n1cnnc1-c1cccc(NC(=O)c2ccc3ccc(Cl)nc3c2)n1 [Example 34]
> 1000	CC(C)n1cnnc1-c1cccc(NC(=O)c2ccc3cccnc3c2)n1 [Example 35]
100 to 1000	CC(C)n1cnnc1-c1cccc(NC(=O)c2ccc3cc(Br)cnc3c2)n1 [Example 36]
> 1000	CC(C)n1cnnc1-c1cccc(NC(=O)c2ccc3cc(-c4ccc(C(C)(C)C)cc4)cnc3c2)n1 [Example 37]
10 to 100	CC(C)n1cnnc1-c1cccc(NC(=O)c2ccc3cc(N4CCOCC4)cnc3c2)n1 [Example 38]
100 to 1000	CC(C)n1cnnc1-c1cccc(NC(=O)c2ccc3ccccc3c2)n1 [Example 39]
100 to 1000	CC(C)n1cnnc1-c1cccc(NC(=O)c2cc3ccccc3cc2F)n1 [Example 40]
> 1000	CC(C)n1nnnc1-c1cccc(NC(=O)c2cc3ccccc3cc2F)n1 [Example 41]
